We go through 9 molecules from patent US9527857B2, “HSPC-sparing treatments for RB-positive abnormal cellular proliferation” (G1 Therapeutics, Inc., priority 2013, dated 2016).

One data set has as its target CDK4/CyclinD1 (Homo sapiens (Human), UniProt P11802). Kind of data set: CDK4/cyclinD1 kinase assay (Nanosyn, microfluidic Caliper platform). As to conditions: ATP at Km (200 uM); read-out: CDK4/CycD1 IC50. Format: biochemical. How it is done: (§1) Selected compounds disclosed herein were tested in CDK4/cyclinD1, CDK2/CycA and CDK2/cyclinE kinase assays by Nanosyn (Santa Clara, Calif.) to determine their inhibitory effect on these CDKs. The assays were performed using microfluidic kinase detection technology (Caliper Assay Platform). The compounds were tested in 12-point dose-response format in singlicate at Km for ATP. Phosphoacceptor substrate peptide concentration used was 1 μM for all assays and Staurosporine was used as the reference compound for all assays. Specifics of each assay are as described below:
CDK4/CyclinD1: Enzyme concentration: 1 nM; ATP concentration: 200 μM; Incubation time: 10 hr.

The next data set concerns the target CDK2/CyclinE (Homo sapiens (Human), UniProt P24941). Kind of data set: CDK2/cyclinE kinase assay (Nanosyn, microfluidic Caliper platform). Format: biochemical. How it is done: Selected compounds disclosed herein were tested in CDK4/cyclinD1, CDK2/CycA and CDK2/cyclinE kinase assays by Nanosyn (Santa Clara, Calif.) to determine their inhibitory effect on these CDKs. The assays were performed using microfluidic kinase detection technology (Caliper Assay Platform). The compounds were tested in 12-point dose-response format in singlicate at Km for ATP. Phosphoacceptor substrate peptide concentration used was 1 μM for all assays and Staurosporine was used as the reference compound for all assays.

For data set [1], the system named is MCF7 (breast adenocarcinoma, Rb-positive). Kind of data set: Cellular proliferation assay (CellTiter-Glo), MCF7. The data set is classed as cell-based. As for the experimental part: The MCF7 cells were seeded in Costar (Tewksbury, Mass.) 3903 96 well tissue culture treated white walled/clear bottom plates. A nine point dose response dilution series from 10 uM to 1 nM was performed and cell viability was determined after six days of compound treatment as indicated using the CellTiter-Glo® luminescent cell viability assay (CTG; Promega, Madison, Wis., United States of America) following the manufacturer's recommendations. Plates were read on a BioTek (Winooski, Vt.) Syngergy2 multi-mode plate reader. The Relative Light Units (RLU) were plotted as a result of variable molar concentration and data was analyzed using Graphpad (LaJolla, Calif.) Prism 5 statistical software to determine the EC50 for each compound.
(§2) Cellular proliferation assays were conducted using the following cancer cell lines: MCF7 (breast adenocarcinoma—Rb-positive), ZR-75-1 (breast ductal carcinoma—Rb-positive), H69 (human small cell lung cancer—Rb-negative) cells, or A2058 (human metastatic melanoma cells—Rb-negative). These cells were seeded in Costar (Tewksbury, Mass.) […] 96 well tissue culture treated white walled/clear bottom plates. Cells were treated with the compounds of Table 1 as nine point dose response dilution series from 10 uM to 1 nM. Cells were exposed to compounds and then cell viability was determined after either four (H69) or six (MCF7, ZR75-1, A2058) days as indicated using the CellTiter-Glo® luminescent cell viability assay (CTG; Promega, Madison, Wis., United States of America) following the manufacturer's recommendations. Plates were read on BioTek (Winooski, Vt.) Syngergy2 multi-mode plate reader. The Relative Light Units (RLU) were plotted as a result of variable molar concentration and data was analyzed using Graphpad (LaJolla, Calif.) Prism 5 statistical software to determine the EC50 for each compound.
Background: In ATP-based viability assays light output follows the ATP content of the culture.

In data set [2] the test system is ZR-75-1 (breast ductal carcinoma, Rb-positive). Kind of data set: Cellular proliferation assay (CellTiter-Glo), ZR-75-1. The data set is classed as cell-based. How it is done:
as §2

Data set [3] is described as follows: Mouse pharmacokinetics (oral gavage / intravenous). The data set is classed as in vivo, mice. Conditions: plasma, 30 mg/kg, read-out: F (oral bioavailability). How it is done: Blood samples were taken at 0, 0.25, 0.5, 1.0, 2.0, 4.0, and 8.0 hours post dosing and the plasma concentrations were determined by HPLC.
The test system of the next data set is HSPCs (LKS+). Kind of data set: Bone marrow HSPC proliferation by EdU incorporation and flow cytometry. The data set is classed as in vivo. Conditions: 150 mg/kg oral gavage, mice. As for the experimental part: . JCNI 2012; 104(6):476-487 (FIG. 2A). […].
Mice were then sacrificed at the indicated times (0, 12, 24, 36, or 48 hours following compound administration), and bone marrow was harvested (n=3 mice per time point), as previously described (Johnson et al. J. Clin. Invest. (2010) 120(7), 2528-2536). Four hours before the bone marrow was harvested, mice were treated with 100 μg of EdU by intraperitoneal injection (Invitrogen). Bone marrow mononuclear cells were harvested and immunophenotyped using previously described methods and percent EdU positive cells were then determined (Johnson et al. J. Clin. Invest. (2010) 120(7), 2528-2536). In brief, HSPCs were identified by expression of lineage markers (Lin−), Sca1 (S+), and c-Kit (K+).
Four hours before animals were sacrificed and the bone marrow was harvested, mice were treated with 100 μg of EdU by intraperitoneal injection. Three mice per group were sacrificed at 12 hours and the remaining three animals per group were sacrificed at 24 hours. Results are shown in FIG. 5A as the ratio of EdU positive cells for treated animals at 12 or 24 hour time points compared to control.
Further experiments were completed with Compound T examining dose response and longer periods of compound treatment. […] […].
Both compounds were administered at 150 mg/kg by oral gavage. One hour prior to harvesting bone marrow, EdU was IP injected to label cycling cells. Bone marrow was harvested at 12, 24, 36, and 48 hours after compound treatment and the percentage of EdU positive HSPC cells was determined at each time point.
On the technique in general: A flow cytometer gives signals particle by particle.

The next data set addresses CDK2/CyclinA (Homo sapiens (Human), UniProt P24941). Kind of data set: CDK2/CycA kinase assay (Nanosyn, microfluidic Caliper platform). Format: biochemical. As for the experimental part:
as §1
CDK2/CyclinA: Enzyme concentration: 0.2 nM; ATP concentration: 50 μM; Incubation time: 3 hr.

Data set [4] concerns MMTV-c-neu (Rb-positive) tumors. Kind of data set: MMTV-c-neu HER2-driven (Rb-positive) luminal breast cancer mouse model. Format: in vivo, mice. The text has this:
A HER2-driven model (Rb-positive) of breast cancer (Muller W J, Sinn E, Pattengale P K, Wallace R, Leder P. Single-step induction of mammary adenocarcinoma in transgenic mice bearing the activated c-neu oncogene. Cell 1988; 54: 105-15), that expresses c-neu (the mouse ortholog of human HER2) driven by the MMTV promoter was used in the following example. This model was chosen because previous studies in murine (Yu Q, Geng Y, Sicinski P. Specific protection against breast cancers by cyclin D1 ablation. Nature 2001; 411: 1017-21; Landis M W, Pawlyk B S, Li T, Sicinski P, Hinds P W. Cyclin D1-dependent kinase activity in murine development and mammary tumorigenesis. Cancer Cell 2006; 9: 13-22; Reddy H K, Mettus R V, Rane S G, Grana X, Litvin J, Reddy E P. Cyclin-dependent kinase 4 expression is essential for neu-induced breast tumorigenesis. Cancer Res 2005; 65: 10174-8; Yu Q, Sicinska E, Geng Y, Ahnstrom M, Zagozdzon A, Kong Y, et al. Requirement for CDK4 kinase function in breast cancer. Cancer Cell 2006; 9: 23-32.) and human HER2-positive breast cancer (An H X, Beckmann M W, Reifenberger G, Bender H G, Niederacher D. Gene amplification and overexpression of CDK4 in sporadic breast carcinomas is associated with high tumor cell proliferation. Am J Pathol 1999; 154: 113-8; Samady L, Dennis J, Budhram-Mahadeo V, Latchman DS. Activation of CDK4 gene expression in human breast cancer cells by the Brn-3b POU family transcription factor. Cancer Biol Ther 2004; 3: 317-23; Takano Y, Takenaka H, Kato Y, Masuda M, Mikami T, Saegusa M, et al. Cyclin D1 overexpression in invasive breast cancers: correlation with cyclin-dependent kinase 4 and oestrogen receptor overexpression, and lack of correlation with mitotic activity.
MMTV-neu mice were generated and observed post-lactation, with tumors observed with a median latency of approximately 25 weeks. Mice were enrolled in therapy studies when tumors reached a standard size (50-60 mm3) that permitted easy serial assessment. […] Tumor volumes were calculated by the formula, Volume=[(width)^2×length]/2. Tumor-bearing mice were euthanized at the indicated times due to predefined morbidity, tumor ulceration, or a tumor size of more than 1.5 cm in diameter.
Tumors were serially assessed weekly using caliper measurements. Therapeutic intervention began once tumors reached 40-64 mm^3. Tumor volume was calculated using the formula […]. All three compounds were administered orally via medicated diets (100 mg/kg/d). Medicated diets were administered for 28 consecutive days and then stopped. RECIST criteria were used to assess objective response rates.

Chain of CDK4/CyclinD1 (P11802 whole entry, species assumed): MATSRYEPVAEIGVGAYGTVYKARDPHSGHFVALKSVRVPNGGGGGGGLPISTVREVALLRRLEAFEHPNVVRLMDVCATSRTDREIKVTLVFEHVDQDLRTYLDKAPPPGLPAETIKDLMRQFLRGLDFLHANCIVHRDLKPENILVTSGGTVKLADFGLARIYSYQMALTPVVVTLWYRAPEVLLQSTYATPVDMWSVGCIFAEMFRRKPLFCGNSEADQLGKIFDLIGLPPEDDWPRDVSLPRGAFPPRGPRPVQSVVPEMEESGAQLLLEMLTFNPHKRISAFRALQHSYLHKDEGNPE
Chain of CDK4/CyclinD1 (P24385 whole entry partner, species assumed): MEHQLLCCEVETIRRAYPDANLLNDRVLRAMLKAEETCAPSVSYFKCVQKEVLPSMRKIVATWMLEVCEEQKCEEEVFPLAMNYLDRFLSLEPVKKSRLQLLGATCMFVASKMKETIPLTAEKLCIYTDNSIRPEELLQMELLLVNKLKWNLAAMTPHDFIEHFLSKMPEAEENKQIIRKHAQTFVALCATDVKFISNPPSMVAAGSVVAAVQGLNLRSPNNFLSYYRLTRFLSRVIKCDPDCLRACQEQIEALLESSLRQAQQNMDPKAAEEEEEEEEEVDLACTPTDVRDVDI

As for `CC(C)(O)CN1CCN(c2ccc(Nc3ncc4cc5n(c4n3)C3(CCCC3)CNC5=O)nc2)CC1` [EEE], the IC50 at CDK4/CyclinD1 worked out at 0.2 nM.

For `CCC(C)[C@@H]1CNC(=O)c2cc3cnc(Nc4ccc(N5CCNCC5)cn4)nc3n21` (some centres unmarked) [VVV], the “Fold Selectivity (CDK2/CycE/CDK4)” value at CDK2/CyclinE is listed as 589.

The bioavailability is the share of a dose that reaches the circulation, judged against a reference dose that is usually intravenous. For `O=C1NCC2(CCCCC2)n2c1cc1cnc(Nc3ccc(N4CCNCC4)cn3)nc12` [Q], the “inhibition of cellular proliferation of MCF-7 cells (FIGS. 21-24)” value (from here on “inhibition … (FIGS. 21-24)”) in data set [1] was “significant inhibition of cellular proliferation”. For the same molecule, the “inhibition of cellular proliferation of ZR75-1 cells (FIGS. 25-28)” value (“inhibition … (FIGS. 25-28)” for short) in data set [2] is listed as “significant inhibition of cellular proliferation”. For the same molecule, the bioavailability in data set [3] turned out to be 2%. Moreover, the “EdU incorporation into HSPCs at 12 and 24 hours (FIG. 5A)” value in the data set on HSPCs (LKS+) was “some reduction at 12 hours and started to return to baseline at 24 hours”.

As for `C[C@@H]1CN(c2ccc(Nc3ncc4cc5n(c4n3)C3(CCCCC3)CNC5=O)nc2)C[C@H](C)N1C[C@@H](C)O` [MM], in data set [1], the “inhibition … (FIGS. 21-24)” value was “significant inhibition of cellular proliferation”. In data set [2], the “inhibition … (FIGS. 25-28)” value is “significant inhibition of cellular proliferation”.

Turning to `CC1CN(c2ccc(Nc3ncc4cc5n(c4n3)C3(CCCC3)CNC5=O)nc2)CCN1CCC(C)(C)C` (centres unmarked) [PPP], the IC50 at CDK4/CyclinD1 was found to be 0.8 nM; on CDK2/CyclinE (ATP at Km (100 uM), read-out: CDK2/CycE IC50), 16500 nM; on CDK2/CyclinA (ATP at Km (50 uM)) it was 2640 nM. The “Fold Selectivity (CDK2/CycE/CDK4)” value on CDK2/CyclinE worked out at 21263. For the same molecule, on CDK2/CyclinA, the “Fold Selectivity (CDK2/CycA/CDK4)” value was 3402.

With `CC1(C)CN(c2ccc(Nc3ncc4cc5n(c4n3)C3(CCCCC3)CNC5=O)nc2)CCN1CC1CC1` [H], the “inhibition … (FIGS. 21-24)” value in data set [1] is “significant inhibition of cellular proliferation”. Besides, the “inhibition … (FIGS. 25-28)” value in data set [2] was “significant inhibition of cellular proliferation”.

The term EC50 denotes the concentration giving half of the maximal effect. In data set [1] (Homo sapiens, MCF7, 144 h, six days), `CN1CCN(C(=O)c2ccc(Nc3ncc4cc5n(c4n3)C3(CCCC3)CNC5=O)nc2)CC1` [BBB] came in with a half-maximal effective concentration (EC50) of 123 nM.

For `O=C1NCC2(CCCCC2)n2c1cc1cnc(Nc3ccc(N4CCC(N5CCOCC5)CC4)cn3)nc12` [U], the “inhibition … (FIGS. 21-24)” value in data set [1] was “significant inhibition of cellular proliferation”. In addition, the “inhibition … (FIGS. 25-28)” value in data set [2] is listed as “significant inhibition of cellular proliferation”. Moreover, in data set [3], the bioavailability was determined as 67%. The “tumor volume during a 28 day course of therapy” value in data set [4] (100 mg/kg/d in chow) is “marked decrease in tumor volume”. Also, the objective response rate in data set [4] (100 mg/kg/day medicated diet, 28 days, RECIST criteria) is 100%.

In the case of `CC1CN(c2ccc(Nc3ncc4cc5n(c4n3)C3(CCCCC3)CNC5=O)nc2)C[C@@H](C)N1CC1CC1` (some centres unmarked) [OO], the “inhibition … (FIGS. 21-24)” value in data set [1] is “significant inhibition of cellular proliferation”. In addition, the “inhibition … (FIGS. 25-28)” value in data set [2] is reported as “significant inhibition of cellular proliferation”.
